For 14 compounds, TGI and GI50 results are on record in PubChem BioAssay (NCI).

Usually TGI stands for the concentration giving total growth inhibition. As a reminder, the GI50 is the concentration giving 50% growth inhibition.

Some test systems named below: SK-MEL-28 melanoma; UO-31 renal; OVCAR-4 ovarian; SF-295 CNS; NCI-H23 lung; HL-60(TB) leukemia; UACC-257 melanoma; 786-0 renal; COLO 205 colon; NCI/ADR-RES ovarian.
What all share (experiment): DTP human tumour cell line panel, 48 h

Each structure is given as a SMILES string. Where “and” joins values, the source holds several entries; their conditions need not be identical. Equal entries are not always repeated.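 All cell lines were grown in 96-well plates and treated with compound for 48 hours. GI50 = concentration required for 50% inhibition of growth. TGI marks complete inhibition of growth.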

`CC[C@H](C)N(CCN)C(=O)c1cc2ccccc2c(-c2ccccc2Cl)n1`: the concentration for total growth inhibition (TGI) came to 27 µM with SK-MEL-28 melanoma; 25.3 µM with UO-31 renal; 30.1 µM with OVCAR-4 ovarian; 28.4 µM in the experiment on SF-295 CNS; 28.6 µM in the experiment with NCI-H23 lung; 23.1 µM in the experiment on HL-60(TB) leukemia. Besides, the TGI in the experiment on UACC-257 melanoma is 3.37 µM; with 786-0 renal, more than 100 µM; in the experiment with COLO 205 colon, 17.9 µM.

For `COc1cc(OC)c([C@@H]2OC(=O)C3C2C(=O)O[C@H]3c2cc(OC)c(OC)cc2OC)cc1OC` (stereo not given in full), the concentration for total growth inhibition (TGI) in the experiment on SK-MEL-28 melanoma, in the experiment with UO-31 renal, in the experiment on OVCAR-4 ovarian, in the experiment on SF-295 CNS, in the experiment on NCI-H23 lung and in the experiment with HL-60(TB) leukemia was more than 100 µM throughout. In addition, the concentration for total growth inhibition (TGI) with UACC-257 melanoma, with 786-0 renal and in the experiment on COLO 205 colon was more than 100 µM throughout.

On to `N#Cc1cn(C2OC(CO)C(O)C2O)c2ncnc(N)c12` (stereo not given), for which the GI50 in the experiment on SK-MEL-28 melanoma was 0.0329 µM; in the experiment on UO-31 renal, 0.0658 µM and 0.0459 µM and 0.0271 µM; in the experiment on OVCAR-4 ovarian, 0.0282 µM and 0.0117 µM; in the experiment with SF-295 CNS, less than 0.0193 µM; with NCI-H23 lung, 0.0256 µM; with HL-60(TB) leukemia, 0.045 µM. For the same compound, the GI50 in the experiment with NCI/ADR-RES ovarian was 0.0459 µM. Further, the TGI was 0.665 µM and 0.819 µM and 1.98 µM in the experiment on UO-31 renal; more than 100 µM with 786-0 renal.

In the case of `CC(=O)n1c(COS(C)(=O)=O)nc2ccccc21`, the TGI with SK-MEL-28 melanoma, in the experiment with UO-31 renal, with OVCAR-4 ovarian, in the experiment on SF-295 CNS, with NCI-H23 lung and with NCI/ADR-RES ovarian was more than 100 µM each time. The TGI in the experiment with UACC-257 melanoma, in the experiment on 786-0 renal and in the experiment with COLO 205 colon was more than 100 µM throughout.

As for `CC1=C(C(=O)Nc2ccccc2C)C(c2ccccc2)C(C(=O)Nc2ccccc2C)=C(C)N1`, the TGI with SK-MEL-28 melanoma is more than 100 µM; with UO-31 renal, more than 100 µM; with OVCAR-4 ovarian, more than 100 µM; with SF-295 CNS it was more than 100 µM; in the experiment on NCI-H23 lung, more than 100 µM; in the experiment with HL-60(TB) leukemia, 43.3 µM. The TGI was more than 100 µM with UACC-257 melanoma, more than 100 µM with 786-0 renal and 74.2 µM with COLO 205 colon.

As to `COc1ccc2c(c1)/C(=C\c1c(C)nc3sc(C)cn13)C(=O)N2C`, the GI50 was 7.26 µM with SK-MEL-28 melanoma; 10 µM in the experiment on UO-31 renal; 26.4 µM in the experiment with OVCAR-4 ovarian; 2.25 µM in the experiment on SF-295 CNS; 8.04 µM in the experiment with NCI-H23 lung; 1.32 µM in the experiment with NCI/ADR-RES ovarian. Further, the GI50 is 21.8 µM in the experiment with UACC-257 melanoma, 8.92 µM in the experiment with 786-0 renal and 3.42 µM in the experiment with COLO 205 colon. Besides, the TGI in the experiment on SK-MEL-28 melanoma was 35.5 µM; in the experiment on UO-31 renal it was more than 100 µM; in the experiment with OVCAR-4 ovarian, more than 100 µM; in the experiment on SF-295 CNS it was 6.88 µM; in the experiment on NCI-H23 lung, 35.3 µM; in the experiment on NCI/ADR-RES ovarian, 4.04 µM. Also, the TGI in the experiment with UACC-257 melanoma is more than 100 µM; in the experiment with 786-0 renal, more than 100 µM; in the experiment with COLO 205 colon, 49.8 µM.

`Cc1cc2c(c(C#N)c1C)NC(=O)CCC2=O`: the TGI was more than 100 µM in the experiment with SK-MEL-28 melanoma; 91.4 µM with UO-31 renal; more than 100 µM with OVCAR-4 ovarian; more than 100 µM in the experiment on SF-295 CNS; more than 100 µM with NCI-H23 lung; more than 100 µM in the experiment with HL-60(TB) leukemia. The TGI in the experiment on UACC-257 melanoma, in the experiment with 786-0 renal and in the experiment on COLO 205 colon was more than 100 µM each time.

Take `N#CCC(=O)Nc1cccc(C(F)(F)F)c1`: the TGI in the experiment on SK-MEL-28 melanoma, in the experiment on UO-31 renal, in the experiment with OVCAR-4 ovarian, in the experiment with SF-295 CNS, with NCI-H23 lung and with HL-60(TB) leukemia was more than 100 µM in each case. Also, the TGI with UACC-257 melanoma, with 786-0 renal and in the experiment with COLO 205 colon was more than 100 µM throughout.

Regarding `Cc1ccc(OCC(=O)N2N=C(c3ccccc3)CC2(O)c2ccccc2)cc1` (stereo not given), the TGI in the experiment with SK-MEL-28 melanoma is more than 100 µM; in the experiment on UO-31 renal, more than 100 µM; in the experiment on OVCAR-4 ovarian it was 71.6 µM; with SF-295 CNS, more than 100 µM; with NCI-H23 lung, more than 100 µM; in the experiment with HL-60(TB) leukemia, more than 100 µM. The values for the total growth inhibition concentration (TGI) in the experiment on UACC-257 melanoma, in the experiment with 786-0 renal and with COLO 205 colon were more than 100 µM, 30 µM and more than 100 µM, respectively.

`CCc1cccc(C(C)C)c1NC(=O)C(=O)C(Cc1nc2ccccc2[nH]c1=O)C(=O)OC` (stereo not given): the TGI with SK-MEL-28 melanoma, with UO-31 renal, with OVCAR-4 ovarian, in the experiment with SF-295 CNS, in the experiment on NCI-H23 lung and in the experiment with HL-60(TB) leukemia was more than 100 µM in each case. For the same compound, the concentration for total growth inhibition (TGI) in the experiment on UACC-257 melanoma, in the experiment with 786-0 renal and with COLO 205 colon was more than 100 µM throughout.

For the compound `Cn1c2c(c3ccccc31)CCN(CCCCN1CCc3c(n(C)c4ccccc34)C1=O)C2`, the TGI in the experiment on SK-MEL-28 melanoma, in the experiment on UO-31 renal, with OVCAR-4 ovarian, in the experiment with SF-295 CNS, in the experiment on NCI-H23 lung and in the experiment with HL-60(TB) leukemia was more than 100 µM each time. The concentration for total growth inhibition (TGI) in the experiment with UACC-257 melanoma, in the experiment with 786-0 renal and with COLO 205 colon was more than 100 µM throughout.

As for `CC1=C(C(=O)Nc2c(C)cccc2C)C(c2ccc3c(c2)OCO3)C(C(=O)Nc2c(C)cccc2C)=C(C)N1`, the concentration for total growth inhibition (TGI) with SK-MEL-28 melanoma is 46 µM; in the experiment with UO-31 renal it was 30.6 µM; in the experiment with OVCAR-4 ovarian, 77.3 µM; in the experiment on SF-295 CNS, 32.7 µM; in the experiment on NCI-H23 lung, 29.8 µM; with HL-60(TB) leukemia it was 56.1 µM. Moreover, the total growth inhibition concentration (TGI) with UACC-257 melanoma turned out to be 32.3 µM; in the experiment on 786-0 renal, 28.2 µM; in the experiment on COLO 205 colon, 47.1 µM.

Turning to `O=C(O)CSc1n[nH]c(-c2ccc(O)cc2)n1`, the concentration for total growth inhibition (TGI) with SK-MEL-28 melanoma, with UO-31 renal, in the experiment on OVCAR-4 ovarian, in the experiment on SF-295 CNS, in the experiment with NCI-H23 lung and in the experiment with HL-60(TB) leukemia was more than 100 µM throughout. The total growth inhibition concentration (TGI) in the experiment with UACC-257 melanoma, with 786-0 renal and in the experiment on COLO 205 colon was more than 100 µM each time.

For `COC(=O)C1CC2(CC3=C1CCCC3)OCCO2` (stereo not given), the TGI in the experiment on SK-MEL-28 melanoma, in the experiment with UO-31 renal, with OVCAR-4 ovarian, in the experiment on SF-295 CNS, with NCI-H23 lung and with HL-60(TB) leukemia was more than 100 µM throughout. Further, the total growth inhibition concentration (TGI) in the experiment on UACC-257 melanoma, in the experiment with 786-0 renal and in the experiment on COLO 205 colon was more than 100 µM in each case.
